“Also recorded” adds a separate entry of the source.
How the values were obtained:
[1] = test system: Skw3 control transductant UNO H13 (Sulfamethoxazole-allergic donor); assay: TCR-transductant stimulation assay, control transductant UNO H13; format: cell-based, human; settings: 24 h, heterologous EBV-transformed B cells, no drug 5.2
Text: (§1) Skw3 cell lines (Leibniz Institute DSMZ, Brunswick, Germany, (50)) were transduced as described previously (51). […] The resulting retroviruses were used to transduce the TCR-defective Skw3 cell line, which also expresses the human CD8 coreceptor. The TCR-transduced cells outgrowing in selective medium were picked, and the expression of the correct TCR α and β was further assessed by flow cytometry, using a FACS-Canto-I device (BD-Biosciences, San Jose, CA, USA). The transduced cells with stable TCR expression were selected for assessment of reactivity and specificity, which was measured by TCR-induced CD69 expression. Skw3 cell lines expressing the cognate TCR α and β chains were cocultured with autologous EBV-transformed B-lymphoblastoid cell lines (52) at 1:2 ratio at 37° C. Tested drugs were added to the cocultures with the indicated concentrations. After 24 h, cells were stained with anti-human CD3 (Biolegend) and anti-human CD69 (Biolegend) and analysed by flow cytometry. […] Experiments were repeated at least 2 times. […] Heterologous EBV-transformed B cells were also used to stimulate control transductants.

[2] = test system: TCRαβ Skw3 transfectant C2 (TCR of top clone of patient TEN-7); format: cell-based, human; settings: 24 h, heterologous PBMCs from healthy donors, no drug 31.7
Text: Skw3 cell lines (Leibniz Institute DSMZ, Brunswick, Germany, (50)) were transduced as described previously (51). […] The resulting retroviruses were used to transduce the TCR-defective Skw3 cell line, which also expresses the human CD8 coreceptor. The TCR-transduced cells outgrowing in selective medium were picked, and the expression of the correct TCR α and β was further assessed by flow cytometry, using a FACS-Canto-I device (BD-Biosciences, San Jose, CA, USA). The transduced cells with stable TCR expression were selected for assessment of reactivity and specificity, which was measured by TCR-induced CD69 expression. Skw3 cell lines expressing the cognate TCR α and β chains were cocultured with autologous EBV-transformed B-lymphoblastoid cell lines (52) at 1:2 ratio at 37° C. Tested drugs were added to the cocultures with the indicated concentrations. After 24 h, cells were stained with anti-human CD3 (Biolegend) and anti-human CD69 (Biolegend) and analysed by flow cytometry. […] Experiments were repeated at least 2 times. […] Then, the productive rearranged TCRα and TCRβ chains were transduced into Skw3 cells, a TCR defective lymphoma line (28) (data not shown). […] The following day, we measured CD69 expression at the surface of Skw3 cells, as marker for TCR stimulation. […]

[3] = test system: Skw3 control transductant 17D (Abacavir-allergic donor); assay: TCR-transductant stimulation assay, control transductant 17D; format: cell-based, human; settings: control 17D, 24 h, heterologous EBV-transformed B cells, no drug 1.4
Text: as §1

[4] = test system: human CD45+ cells (PBMCs from a TEN patient); assay: Human PBMC expansion in lamotrigine- versus vehicle-treated NSG recipient mice; format: in vivo, mouse
Procedure: NSG animals were adoptively transferred at day 0 with 1.10^6 millions PBMCs collected from a TEN patient, 1 year after disease recovery. Animals were then administrated with lamotrigine (the culprit drug; 0.1 mg/kg/day) or vehicle by oral gavage, every day, from day 4. Results depict the kinetic of human CD45+ cell expansion measured by flow cytometry in the blood of NSG mice throughout the protocol, or the spleen at day 29. Results are expressed as mean and individual % of humanization, calculated according to the following formula: % human CD45+ cells/% (mouse+human) CD45+ cells. Six mice per group were used in this experiment. NSG animals were adoptively transferred at day 0 with 1.10^6 millions PBMCs collected from a TEN patient (1 year after disease recovery) or from a healthy donor. Animals were then administrated with lamotrigine (the culprit drug; 0.1 mg/kg/day) or vehicle, by oral gavage every day, from day 4. Results depict the expansion of human CD45+ cells measured by flow cytometry in the spleen of NSG mice, 29 days after cell transfer. Results are expressed as mean and individual % of humanization, calculated according to the following formula: % human CD45+ cells/% (mouse+human) CD45+ cells. Six mice per group were used in this experiment. NSG animals were adoptively transferred at day 0 with 1.10^6 millions PBMCs collected from a TEN patient (1 year after disease recovery). Animals were then administrated with lamotrigine (the culprit drug; 0.1 mg/kg/day), by oral gavage every day, from day 4. Results depict the expression of CD38 (A) and Granzyme B and Granulysin (B) markers on CD4+ and CD8+ T cells as measured by flow cytometry in the spleen of NSG mice, 43 days after cell transfer. Model description: We generated a surrogate model of TEN disease in mouse, by reconstituting NSG animals with 1.10^6 millions of peripheral blood mononuclear cells (PBMCs) collected from a TEN patient, 1 year after disease recovery. The patients' T cells were then reactivated with the offending drug delivered to animals by oral gavage.

NK cells = settings: preclinical data; cited from earlier work
[5] = test system: relapsed or refractory multiple myeloma; settings: monotherapy or with dexamethasone or dexamethasone and an immunomodulatory drug; RRMM; doses up to 16 mg/kg intravenous infusion; cited from earlier work
[6] = test system: plasmablasts and NK cells; settings: cited from earlier work
[7] = test system: relapsed or refractory multiple myeloma; settings: cited from earlier work

CC(C)Cc1ccc(C(C)C(=O)O)cc1 (centres unmarked) [Ibuprofen]
% of CD69 expression in CD3+ transfectants, Concentration 1 ([1]; Ibuprofen 20 μg/ml): 4.6% | % of CD69 expression in CD3+ transfectants, Concentration 2 ([1]; Ibuprofen 100 μg/ml): 10.5% | % of CD69 expression in CD3+ transfectants, Concentration 3 ([1]; Ibuprofen 200 μg/ml): 12.4%

COc1ccnc(C[S+]([O-])c2nc3ccc(OC(F)F)cc3[nH]2)c1OC (centres unmarked) [Pantoprazole]
% of CD69 expression in CD3+ transfectants, Concentration 2 ([2]; Pantoprazole 10 μg/ml): 40.1% | % of CD69 expression in CD3+ transfectants, Concentration 3 ([2]; Pantoprazole 50 μg/ml): 47.4% | % of CD69 expression in CD3+ transfectants, Concentration 1 ([3]; Abacavir 1 μg/ml, Pantoprazole 12.5 μg/ml): 1.8% | % of CD69 expression in CD3+ transfectants, Concentration 2 ([3]; Abacavir 10 μg/ml, Pantoprazole 25 μg/ml): 1.8% | % of CD69 expression in CD3+ transfectants, Concentration 3 ([3]; Abacavir 20 μg/ml, Pantoprazole 50 μg/ml): 1.7%

Nc1nnc(-c2cccc(Cl)c2Cl)c(N)n1 [lamotrigine]
expanded CD8+ T cells expressing CD38, Granzyme B and Granulysin markers ([4]; lamotrigine 0.1 mg/kg/day from day 4, spleen, 43 days after cell transfer (FIG. 11)): significant part | number of animals with a high % of humanization, culprit drug group versus vehicle group ([4]; lamotrigine 0.1 mg/kg/day oral gavage from day 4, TEN patient PBMCs, blood and spleen, day 29 (FIG. 9)): largely superior | proliferation/expansion of TEN PBMCs versus healthy donor PBMCs in response to lamotrigine ([4]; lamotrigine 0.1 mg/kg/day oral gavage from day 4, spleen, 29 days after cell transfer (FIG. 10)): Preferential expansion of TEN PBMCs; also recorded: superior ability of TEN cells to proliferate

MOR202: fully human anti-CD38 antibody being developed by Morphosys (CAS Number 2197112-39-1)
effect on NK cells (NK cells): reduces NK cells | safety and efficacy [5]: safe and effective

TAK-079: CD38-binding fully human IgG 1 λ mAb being developed by Takeda
tolerability in healthy populations ([6]; healthy populations): well tolerated | depletion of plasmablasts and NK cells ([6]; subcutaneous injection): more durable in depleting plasmablasts and NK cells | objective response rate ([7]; heavily pre-treated patients with RRMM, subcutaneous injection): 43% | safety/tolerability in patients ([7]; human, in vivo, sc): safe and well-tolerated

— patent US20240003879A1, “METHODS FOR DIAGNOSIS AND MONITORING OF TOXIC EPIDERMAL NECROLYSIS” (INSERM (INSTITUT NATIONAL DE LA SANTÉ ET DE LA RECHERCHE …, priority 2020, published 2024)
